Experiment [1] relates to erosive gastroesophageal reflux disease. The experiment in a line: Double-blinded, randomized, active-controlled maintenance therapy trial in subjects with treated erosive gastroesophageal reflux disease (Example 2). To be noted: for subjects with erosion observed by upper gastrointestinal endoscopy: test group (tegoprazan 25 mg, at least 17 subjects) and control group (lansoprazole 15 mg) pooled, total 37 subjects; for symptom evaluation: symptoms of heartburn and gastric acid reflux while taking the drug: all the subjects of the group, once a day for four weeks, tegoprazan 25 mg, lansoprazole 15 mg. The class given is in vivo, human. The procedure: A double-blinded, randomized and active controlled study was designed to identify an effect of 25 mg of tegoprazan on maintenance therapy for gastroesophageal reflux disease.
(2) a person who is diagnosed with erosive gastroesophageal reflux disease (LA grade A-D) through upper gastrointestinal endoscopy within 12 weeks based on random group allocation (visit 2);
(3) a person who is identified as having erosive gastroesophageal reflux disease treated through upper gastrointestinal endoscopy within seven days based on random group allocation (visit 2) (a person who is identified the cure of erosion after administration of a standard dose of therapeutic agents for erosive gastroesophageal reflux disease (PPI, P-CAB, etc.) for 4-8 weeks due to a typical symptom of gastroesophageal reflux disease and erosive gastroesophageal reflux disease);
The clinical trial was performed in a double-blinded, randomized, active-controlled and multi-center clinical trial manner, and the clinical trial may be schematized as shown in FIG. 1.
The subjects were classified using stratified block randomization based on LA grades identified by upper gastrointestinal endoscopy performed within 12 weeks before the random allocation on visit (visit 2). Each group was administered with the drug for 24 weeks.
As identified in the table above, the test group was orally dosed with 25 mg of tegoprazan tablet (Preparation Example 1)/lansoprazole 15 mg placebo (Preparation Example 4), and the control group was orally dosed with 25 mg of tegoprazan placebo (Preparation Example 2)/lansoprazole 15 mg capsule (Preparation Example 3).
The subjects randomly allocated to each group took the prescribed clinical trial drug once a day at a regular time from the first day of prescription. A diary on the trial subjects was kept from the start day of taking the clinical trial drug.
During a visit in 4 weeks (visit 3), 12 weeks (visit 4) and 24 weeks (visit 5) later, subjects paid a visit on an empty stomach without taking the clinical trial drug, then received a scheduled test, then were newly prescribed the same drug, then took it from the very day, then received a test in their visit in 24 weeks (visit 5) later, and then stopped the administration.
In four weeks (visit 3) after administering the clinical trial drug, endoscopy was not performed, but clinical laboratory tests (hematologic test, blood chemistry test, blood coagulation test, urine test, hepatitis test, etc.) and evaluation of symptoms were performed. In 12 weeks (visit 4) and 24 weeks (visit 5) later, it was checked whether erosion recurred or not through the upper gastrointestinal endoscopy, and the clinical laboratory test, evaluation of symptoms and the like were performed. Clinical trial subjects took the clinical trial drug for up to 24 weeks and then entered into a safety follow-up (f/u) period, in which the f/u was performed (by phone or visit) in two weeks after the last administration.
(1) Endoscopic remission: No recurrence of erosion (LA grade A-D) observed through upper gastrointestinal endoscopy during a maintenance period (12 weeks)
(1) Rate of subjects without main symptoms (heartburn and gastric acid reflux)
Rate of subjects without main symptoms=(Subjects without main symptoms expressed/Number of clinical trial subjects whose symptoms were evaluated during a maintenance period after administration of the clinical trial drug)×100

A further experiment concerns gastric pH. In words: 24-hour gastric pH monitoring after repeated oral dosing in healthy male volunteers (Example 1). The conditions noted are these: for HTR > pH4 (%) Mean: time for which pH of gastric fluid exceeds and maintains 4 based on 24 hours: healthy male volunteers. The class given is in vivo, human. On the procedure:
Tegoprazan and esomeprazole were orally administered for 7 days as shown in table 1 (an open-label, active controlled, parallel design and repeated dose).
There occurred neither serious adverse reactions nor dropouts caused thereby while this clinical trial was in progress. With regard to a gastric pH, a time for which the gastric pH exceeds 4 was evaluated during an observation period for the gastric pH.
After evaluating pharmacokinetic parameters, the time (%) for which a pH of gastric fluid exceeds and maintains 4 based on 24 hours is the same as shown in the following table 2.

Consider `Cc1c(OCC(F)(F)F)ccnc1C[S+]([O-])c1nc2ccccc2[nH]1` (stereo not shown) [lansoprazole, reference compound], for which, in experiment [1] (12 weeks), the “subjects with erosion observed by upper gastrointestinal endoscopy” value is on record as “only one subject among the total 37 subjects”. Further, in experiment [1], the “symptom evaluation: symptoms of heartburn and gastric acid reflux while taking the drug” value is “had not experienced symptoms of heartburn and gastric acid reflux”.

As to `Cc1nc2cc(C(=O)N(C)C)cc(O[C@H]3CCOc4cc(F)cc(F)c43)c2[nH]1` [tegoprazan, (S)-4-(5,7-difluorochroman-4-yloxy)-N,N,2-trimethyl-1H-benzo[d]imidazole-6-carboxamide], the “maintenance effect after four weeks of administration” value in experiment [1] (25 mg once a day, 4 weeks) is given as “demonstrated a maintenance effect”. Further, the “maintenance effect (endoscopic remission maintenance) after twelve weeks of administration” value in experiment [1] (25 mg once a day, 12 weeks) was “A maintenance effect was observed”. The “inhibition of the recurrence of gastroesophageal reflux disease” value in experiment [1] (25 mg, conclusion from 12-week endoscopy) is recorded as “effectively inhibits the recurrence of gastroesophageal reflux disease”. The “subjects with erosion observed by upper gastrointestinal endoscopy” value in experiment [1] (12 weeks) is recorded as “only one subject among the total 37 subjects”. The “symptom evaluation: symptoms of heartburn and gastric acid reflux while taking the drug” value in experiment [1] is “had not experienced symptoms of heartburn and gastric acid reflux”. Further, the “HTR > pH4 (%) Mean: time for which pH of gastric fluid exceeds and maintains 4 based on 24 hours” value is recorded as 40.6% with gastric pH (Day 1, 25 mg once a day orally) and 56.6% in the experiment on gastric pH (Day 7, 25 mg once a day orally for seven days). In addition, the “average of time for which the gastric pH exceeds 4 (Time pH>4, %)” value with gastric pH (from day 1 after the administration, 25 mg, observed for 24 hours) is reported as “at least 40%”.

Values taken from US20220125764A1, “PHARMACEUTICAL COMPOSITION COMPRISING BENZIMIDAZOLE DERIVATIVE COMPOUND” (HK INNO.N CORPORATION, priority 2019, published 2022).
